# Results published in ChEMBL document CHEMBL4350971, “Discovery of tropinone-thiazole derivatives as potent caspase 3/7 activators, and noncompetitive tyrosinase inhibitors with high antiproliferative activity: Rational design, one-pot tricomponent synthesis, and lipophilicity determination” (Eur J Med Chem, 2019).
# The source made the active and inactive calls. The calls are words filed in the database; no cut-off is given here.
# T1: Tyrosinase (Agaricus bisporus, UniProt O42713)
# T1 sequence (O42713 whole entry): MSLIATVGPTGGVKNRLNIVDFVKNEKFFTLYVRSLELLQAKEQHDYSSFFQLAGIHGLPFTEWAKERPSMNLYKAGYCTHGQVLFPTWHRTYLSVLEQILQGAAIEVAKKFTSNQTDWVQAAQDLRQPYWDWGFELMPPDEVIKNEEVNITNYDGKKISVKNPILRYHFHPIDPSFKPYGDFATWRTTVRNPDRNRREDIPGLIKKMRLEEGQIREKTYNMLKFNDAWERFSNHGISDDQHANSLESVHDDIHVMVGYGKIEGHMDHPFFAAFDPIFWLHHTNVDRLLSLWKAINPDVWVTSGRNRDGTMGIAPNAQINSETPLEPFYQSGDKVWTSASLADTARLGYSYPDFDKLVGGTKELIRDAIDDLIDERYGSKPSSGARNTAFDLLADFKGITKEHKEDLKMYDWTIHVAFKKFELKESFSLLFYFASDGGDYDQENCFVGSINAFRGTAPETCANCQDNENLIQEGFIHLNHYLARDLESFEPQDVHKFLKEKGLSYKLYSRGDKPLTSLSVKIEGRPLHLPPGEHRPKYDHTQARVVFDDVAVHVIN
# T2: Tyrosinase (Agaricus bisporus) (UniProt O42713)
# T2 sequence (whole entry): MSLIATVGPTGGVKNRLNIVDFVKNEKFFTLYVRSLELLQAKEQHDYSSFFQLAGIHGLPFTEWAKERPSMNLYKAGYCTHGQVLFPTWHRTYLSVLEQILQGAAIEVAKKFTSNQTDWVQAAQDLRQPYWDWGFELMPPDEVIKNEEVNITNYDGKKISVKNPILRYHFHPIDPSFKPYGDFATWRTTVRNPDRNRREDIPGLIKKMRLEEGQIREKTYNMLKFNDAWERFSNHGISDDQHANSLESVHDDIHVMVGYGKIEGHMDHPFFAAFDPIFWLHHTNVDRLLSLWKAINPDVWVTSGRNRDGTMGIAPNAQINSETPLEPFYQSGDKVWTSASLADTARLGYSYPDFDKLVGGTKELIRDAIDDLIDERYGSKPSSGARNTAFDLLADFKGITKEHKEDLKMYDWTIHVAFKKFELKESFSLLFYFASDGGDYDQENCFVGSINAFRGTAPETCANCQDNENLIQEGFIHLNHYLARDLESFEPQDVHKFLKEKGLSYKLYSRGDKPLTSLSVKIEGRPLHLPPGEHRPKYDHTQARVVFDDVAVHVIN
# Assays:
# B16-F10 = assay: Antiproliferative activity against mouse B16F10 cells incubated for 72 hrs by MTT assay; format: functional, cell-based; details: B16-F10, 72 h
# Tyrosinase = molecular target: T1, Tyrosinase; assay: Inhibition of mushroom tyrosinase using L-dopa as substrate incubated for 30 mins by spectrophotometric method
# A549 [1] = assay: Induction of apoptosis in human A549 cells assessed as fold increase in caspase 3/7 activation using Ac-DEVD-ACC as fluorogenic substrate at 5 ug/ml incubated for 72 hrs by fluorescence assay relative to control; format: functional
# A549 [2] = assay: Antiproliferative activity against human A549 cells incubated for 72 hrs by SRB assay; format: functional, cell-based; details: A549, 72 h
# [3] = Lipophilicity, chromatographic lipophilicity index of the compound in methanol by UPLC-MS/MS; format: physicochemical
# MV4-11 = assay: Antiproliferative activity against human MV4-11 cells incubated for 72 hrs by MTT assay; format: functional, cell-based; details: MV4-11, 72 h
# BALB/3T3 = assay: Antiproliferative activity against mouse BALB/3T3 cells incubated for 72 hrs by SRB assay; format: cell-based; details: BALB/3T3, 72 h
# MCF7 [4] = assay: Antiproliferative activity against human MCF7 cells incubated for 72 hrs by SRB assay; format: functional, cell-based; details: MCF7, 72 h
# [5] = molecular target: T2, Tyrosinase (Agaricus bisporus); assay: Ratio of IC50 for ascorbic acid to IC50 for test compound for inhibition of mushroom tyrosinase using L-dopa as substrate incubated for 30 mins by spectrophotometric method
# [6] = molecular target: T2, Tyrosinase (Agaricus bisporus); assay: Ratio of IC50 for kojic acid to IC50 for test compound for inhibition of mushroom tyrosinase using L-dopa as substrate incubated for 30 mins by spectrophotometric method
# A549 [7] = assay: Potency index, ratio of camptothecin to ratio of test compound for induction of apoptosis in human A549 cells; format: functional
# [8] = molecular target: T2, Tyrosinase (Agaricus bisporus); assay: Inhibition of mushroom tyrosinase assessed as reduction in peak intensity at 15 mM using L-dopa as substrate incubated for 30 mins by UV-vis spectra analysis
# A549 [9] = assay: Potency index, ratio of chlorambucil to ratio of test compound for induction of apoptosis in human A549 cells; format: functional
# MCF7 [10] = assay: Antiproliferative activity against human MCF7 cells reduction in cell viability; format: functional, cell-based
# MCF7 [11] = assay: Antiproliferative activity against human MCF7 cells reduction in cell viability relative to control; format: functional
# HL-60 = assay: Antiproliferative activity against human HL60 cells incubated for 48 hrs by MTS assay; format: functional, cell-based; details: HL-60, 48 h
# HCT-116 = assay: Antiproliferative activity against human HCT116 cells by MTT assay; format: functional, cell-based
# [12] = molecular target: T2, Tyrosinase (Agaricus bisporus); assay: Inhibition of mushroom tyrosinase assessed as reduction in peak intensity at 25 mM using L-dopa as substrate incubated for 30 mins by UV-vis spectra analysis
# [13] = compound: CN1[C@@H]2CC[C@H]1C/C(=N/Nc1nc(-c3ccc(N=[N+]=[N-])cc3)cs1)C2; assay: (§1) Noncompetitive-inhibition of mushroom tyrosinase assessed as Km at 0.1 to 0.25 mM using 0.1 to 0.25 mM L-dopa as substrate incubated for 20 mins by Lineweaver-Burk double reciprocal plot analysis; details: Agaricus bisporus
# [14] = compound: CN1[C@@H]2CC[C@H]1C/C(=N/Nc1nc(-c3ccc(Cl)cc3)cs1)C2; assay: as §1; details: Agaricus bisporus
# [15] = compound: CN1[C@@H]2CC[C@H]1C/C(=N/Nc1nc(-c3ccc(Cl)c(Cl)c3)cs1)C2; assay: as §1; details: Agaricus bisporus
# [16] = compound: CN1[C@@H]2CC[C@H]1C/C(=N/Nc1nc(-c3ccc(Br)cc3)cs1)C2; assay: as §1; details: Agaricus bisporus
# [17] = compound: CN1[C@@H]2CC[C@H]1C/C(=N/Nc1nc(-c3ccc(Cl)cc3Cl)cs1)C2; assay: as §1; details: Agaricus bisporus
# [18] = compound: CN1[C@@H]2CC[C@H]1C/C(=N/Nc1nc(-c3ccc(N=[N+]=[N-])cc3)cs1)C2; assay: (§2) Noncompetitive-inhibition of mushroom tyrosinase assessed as Vmax at 0.1 to 0.25 mM using 0.1 to 0.25 mM L-dopa as substrate incubated for 20 mins by Lineweaver-Burk double reciprocal plot analysis; details: Agaricus bisporus
# [19] = compound: CN1[C@@H]2CC[C@H]1C/C(=N/Nc1nc(-c3ccc(F)cc3)cs1)C2; assay: as §2; details: Agaricus bisporus
# [20] = compound: CN1[C@@H]2CC[C@H]1C/C(=N/Nc1nc(-c3ccc(Cl)cc3)cs1)C2; assay: as §2; details: Agaricus bisporus
# [21] = compound: CN1[C@@H]2CC[C@H]1C/C(=N/Nc1nc(-c3ccc(Cl)c(Cl)c3)cs1)C2; assay: as §2; details: Agaricus bisporus
# [22] = compound: Cc1ccc(-c2csc(N/N=C3\C[C@H]4CC[C@@H](C3)N4C)n2)cc1; assay: as §2; details: Agaricus bisporus
# [23] = compound: CN1[C@@H]2CC[C@H]1C/C(=N/Nc1nc(-c3ccc(C(F)(F)F)cc3)cs1)C2; assay: as §2; details: Agaricus bisporus
# [24] = compound: CN1[C@@H]2CC[C@H]1C/C(=N/Nc1nc(-c3ccc(Br)cc3)cs1)C2; assay: as §2; details: Agaricus bisporus
# [25] = compound: CN1[C@@H]2CC[C@H]1C/C(=N/Nc1nc(-c3ccc(Cl)cc3Cl)cs1)C2; assay: as §2; details: Agaricus bisporus
Molecule,IC50 (B16-F10),IC50 (Tyrosinase),IC50 (A549 [2]),logKw [3],IC50 (MV4-11),IC50 (BALB/3T3),IC50 (MCF7 [4]),other results
CN1[C@@H]2CC[C@H]1C/C(=N/Nc1nc(-c3ccc(F)cc3)cs1)C2,> 15.1 µM,123 µM,42.8 µM,-3.058,13.7 µM,19.1 µM,19.2 µM,Activity (A549 [1]): inactive
CN1[C@@H]2CC[C@H]1C/C(=N/Nc1nc(-c3ccc(Cl)c(Cl)c3)cs1)C2,5.43 µM,3.22 µM,7.89 µM,-4.024,8.29 µM,8.58 µM,7.19 µM,Ratio IC50 [5]: 120; fold change (FC) (A549 [1]): 25; Ratio IC50 [6]: 22; Ratio (A549 [7]): 2; inhibition [8]: Active; Ratio (A549 [9]): 18
ClCCN(CCCl)c1ccc(/C=N/Nc2nc(-c3ccc(Br)cc3)cs2)cc1,–,–,–,–,1.27 µM,–,–,–
CN1[C@@H]2CC[C@H]1C/C(=N/Nc1nc(-c3ccc(N=[N+]=[N-])cc3)cs1)C2,5.91 µM,72.3 µM,11 µM,-3.151,9.87 µM,9.05 µM,8.94 µM,Activity (A549 [1]): inactive
Cc1ccc(-c2csc(N/N=C3\C[C@H]4CC[C@@H](C3)N4C)n2)cc1,10.6 µM,101 µM,17.3 µM,-2.654,10.1 µM,10.2 µM,11.1 µM,Activity (A549 [1]): inactive
CN1[C@@H]2CC[C@H]1C/C(=N/Nc1nc(-c3ccc(C(F)(F)F)cc3)cs1)C2,5.86 µM,33.7 µM,7.54 µM,-3.25,6.68 µM,8.41 µM,6.02 µM,fold change (FC) (A549 [1]): 3 - 5; Ratio (A549 [9]): 3 - 5
CN1[C@@H]2CC[C@H]1C/C(=N/Nc1nc(-c3ccc(Cl)cc3)cs1)C2,> 14.4 µM,133 µM,9.48 µM,-2.844,9.37 µM,9.2 µM,9.08 µM,Activity (A549 [1]): inactive
C/C(=N\Nc1nc(-c2ccc(Cl)c(Cl)c2)cs1)c1ccc(Nc2nc(N)nc(N)n2)cc1,–,–,–,–,3.56 µM,–,–,IC50 (MCF7 [10]): 7.59 µM
CN1[C@@H]2CC[C@H]1CC(=O)C2,–,–,–,–,–,–,–,inhibition (INH) (MCF7 [11]): 26.98%
CN1[C@@H]2CC[C@H]1/C(=C\c1cccc(Br)c1)C(=O)/C2=C/c1cccc(Br)c1,–,–,–,–,–,–,–,IC50 (MCF7 [10]): 13.1 µM; IC50 (HL-60): 3.39 µM
O=C(O)CCCc1ccc(N(CCCl)CCCl)cc1 [CHLORAMBUCIL],12.6 µM,–,72.8 µM,–,8.55 µM,69.7 µM,69.3 µM,–
CCN1[C@@H]2CC[C@H]1/C(=C\c1ccc(OC)c(OC)c1)C(=O)/C2=C/c1ccc(OC)c(OC)c1,–,–,–,–,–,–,–,IC50 (HCT-116): 0.01 µM
CN1[C@@H]2CC[C@H]1C/C(=N/Nc1nc(-c3ccc(Cl)cc3Cl)cs1)C2,5.48 µM,3.51 µM,7.47 µM,-3.79,6.82 µM,8.16 µM,7.05 µM,inhibition [12]: Active; Ratio IC50 [5]: 120; fold change (FC) (A549 [1]): 3 - 5; Ratio IC50 [6]: 22; Ratio (A549 [9]): 3 - 5
CN1[C@@H]2CC[C@H]1C/C(=N/Nc1nc(-c3ccc(Br)cc3)cs1)C2,5.44 µM,85 µM,8.15 µM,-3.066,8.36 µM,8.18 µM,7.67 µM,fold change (FC) (A549 [1]): 3 - 5; Ratio (A549 [9]): 3 - 5
"Tyrosinase (Agaricus bisporus), O42713 (protein) MSLIATVGPTGGVKNRLNIVDFVKNEKFFTLYVRSLELLQAKEQHDYSSFFQLAGIHGLPFTEWAKERPSMNLYKAGYCTHGQVLFPTWHRTYLSVLEQILQGAAIEVAKKFTSNQTDWVQAAQDLRQPYWDWGFELMPPDEVIKNEEVNITNYDGKKISVKNPILRYHFHPIDPSFKPYGDFATWRTTVRNPDRNRREDIPGLIKKMRLEEGQIREKTYNMLKFNDAWERFSNHGISDDQHANSLESVHDDIHVMVGYGKIEGHMDHPFFAAFDPIFWLHHTNVDRLLSLWKAINPDVWVTSGRNRDGTMGIAPNAQINSETPLEPFYQSGDKVWTSASLADTARLGYSYPDFDKLVGGTKELIRDAIDDLIDERYGSKPSSGARNTAFDLLADFKGITKEHKEDLKMYDWTIHVAFKKFELKESFSLLFYFASDGGDYDQENCFVGSINAFRGTAPETCANCQDNENLIQEGFIHLNHYLARDLESFEPQDVHKFLKEKGLSYKLYSRGDKPLTSLSVKIEGRPLHLPPGEHRPKYDHTQARVVFDDVAVHVIN",–,–,–,–,–,–,–,Km [13]: 466 µM; Km [14]: 360 µM; Km [15]: 180 µM; Km [16]: 184 µM; Km [17]: 0.278 µM; Vmax [18]: 5.05 abs/min; Vmax [19]: -1.58 abs/min; Vmax [20]: 6.24 abs/min; Vmax [21]: 5.59 abs/min; Vmax [22]: -16.5 abs/min; Vmax [23]: -12.8 abs/min; Vmax [24]: 2.53 abs/min; Vmax [25]: 0.0126 abs/min
